The values that follow come from PubChem BioAssay AID1241 (SRMLSC, 2008).

The nature of the assay: compounds inducing NF-kB luciferase expression – cell-based, SH-SY5Y, dose response (AID 1241). The conditions noted are these: SH-SY5Y NF-kB promoter luciferase reporter, fold induction. Background: A reporter such as luciferase makes a cellular process visible.
Usually EC50 stands for the concentration that produces a half-maximal response. `Cc1ccc(Cc2cnc(NC(=O)c3cccs3)s2)cc1`: the concentration giving a half-maximal response (EC50) was 4.96 µM.

As for `O=C(CCS(=O)(=O)c1ccccc1)Nc1ccc(-c2nc3ccccc3s2)cc1`, the 50% effective concentration (EC50) was 1.14 µM.

In the case of `Oc1ccc(-c2cn3cc(C(F)(F)F)ccc3n2)cc1`, the EC50 was 1.19 µM.

Turning to `Cc1ccc(CN=C2Nc3ccccc3CS2)cc1`, the EC50 was 1.19 µM.

Regarding `Cc1nnc(SCc2cnc(-c3ccc(C(C)C)cc3)s2)n1C`, the EC50 is 4.57 µM.

In the case of `COC(=O)CSc1nc2cc(OC)ccc2cc1C#N`, the 50% effective concentration (EC50) was 0.295 µM.

On to `O=S(=O)(c1ccc(Cl)cc1)c1snnc1-c1ccccc1`, for which the concentration for a half-maximal effect (EC50) is 2.33 µM.

Turning to `CCc1ccc(-c2cn3c(n2)SCC3)cc1`, the half-maximal effective concentration (EC50) was 9.88 µM.

With `O=C(COc1ccc(CO)cc1Cl)Nc1ccc(F)cc1`, the EC50 was 1.6 µM.

Consider `O=C(Nc1nc2ccccc2s1)c1ccc2c(c1)OCO2`, for which the EC50 is 0.138 µM.

As to `COc1ccc(-c2cc(-c3cc(C)ccc3O)[nH]n2)cc1`, the EC50 was 16 µM.

On to `CC(C)c1ccc(OCc2nc(-c3ccccn3)no2)c(Br)c1`, for which the 50% effective concentration (EC50) is 1.03 µM.

With `CCOC(=O)c1sc(=NC(=O)c2ccccc2)n(C)c1C`, the EC50 was 2.23 µM.

Turning to `CCCCOC(=O)Nc1nc2ccccc2s1`, the EC50 was 3.47 µM.

As to `CCOc1ccc(/C=N/Nc2ccccn2)cc1`, the concentration for a half-maximal effect (EC50) is 1.01 µM.

For the compound `CC(C)c1ccc(-n2cnn(-c3ncccc3[N+](=O)[O-])c2=O)cc1`, the EC50 was 1.59 µM.

On to `CCCCc1ccc(-c2ccc(Br)cc2)nc1`, for which the EC50 was 16.3 µM.

As for `Cc1sc(NC(=O)c2ccco2)nc1-c1ccccc1`, the concentration for a half-maximal effect (EC50) is 2.77 µM.

With `c1ccc(CSCc2cn3ccsc3n2)cc1`, the EC50 was 12.6 µM.

As to `Cc1ccc(-c2cnc3c(Cl)c(C)nn3c2)cc1`, the concentration for a half-maximal effect (EC50) is 11.5 µM.

With `Cc1ccccc1-c1cc(-c2ccccc2O)on1`, the EC50 is 9.69 µM.

On to `Fc1c(F)c(F)c(N/N=C/c2c[nH]c3ccccc23)c(F)c1F`, for which the EC50 was 3.86 µM.

As for `Cc1cc(O)ccc1Nc1nc(-c2cccs2)cs1`, the 50% effective concentration (EC50) was 1.51 µM.

Take `O=C(Nc1ccc2c(c1)CCC2)c1ccccc1`: the half-maximal effective concentration (EC50) is 1.83 µM.

Consider `Cc1csc(SCc2nnc(-c3ccccc3Br)o2)n1`, for which the EC50 was 4.69 µM.

`Cc1ccnc(NC(=O)Nc2cccc(F)c2)c1`: the 50% effective concentration (EC50) is 0.608 µM.

`O=C(NCc1ccco1)c1ccc([N+](=O)[O-])o1`: the concentration for a half-maximal effect (EC50) was 6.89 µM.

For the compound `Cc1ccc(/C=N/Nc2cccc3cccnc23)c(O)c1`, the 50% effective concentration (EC50) was 9.47 µM.

In the case of `Oc1ccc(-c2csc(Nc3ncccn3)n2)c(O)c1`, the half-maximal effective concentration (EC50) is 0.945 µM.

For the compound `Cc1ccc(C2=NN(S(C)(=O)=O)C(c3ccc4c(c3)OCO4)C2)cc1` (configuration not stated), the 50% effective concentration (EC50) was 2.65 µM.

As for `CC(=Nc1ccc(O)cc1)c1sc2ccccc2c1O`, the EC50 is 2.16 µM.

Consider `c1ccc(-c2ccc(-c3nc(-c4ccncc4)no3)cc2)cc1`, for which the 50% effective concentration (EC50) is 0.636 µM.

Regarding `O=C(Nc1ccc2c(c1)CCC2)c1cc2ccccc2o1`, the half-maximal effective concentration (EC50) was 2.41 µM.

As to `Cc1ccccc1OCC(=O)Nc1cccc(C(=O)O)c1`, the EC50 was 4.05 µM.

On to `Fc1ccccc1N1CCN(c2cnc3ccccc3n2)CC1`, for which the concentration giving a half-maximal response (EC50) is 3.33 µM.

Consider `Cc1csc(NC(=O)c2cc3c(s2)CCC3)n1`, for which the EC50 is 1.05 µM.

On to `Cc1sc(NC(=O)c2ccc(Cl)s2)c(C(N)=O)c1C`, for which the concentration for a half-maximal effect (EC50) was 1.7 µM.

As for `Cc1ccc2nc(NC(=S)NC(=O)c3cccs3)sc2c1`, the EC50 is 2.23 µM.

With `N/C(=N\OC(=O)c1cc(Br)ccc1Cl)c1ccccn1`, the EC50 is 2.22 µM.

For `Cc1ccc2nc(NC(=O)c3ccc(Cl)s3)sc2c1`, the EC50 was 1.06 µM.

As to `CCC(=O)NC(c1ccccc1OC)c1ccc2cccnc2c1O` (configuration not stated), the EC50 is 8.39 µM.

`Cc1ccc(-c2nc(Nc3ccccc3)n[nH]2)cc1`: the concentration giving a half-maximal response (EC50) was 2.29 µM.

For `O=[N+]([O-])c1cc(Cl)ccc1-c1nc(-c2ccccc2)no1`, the EC50 is 3.2 µM.

For `O=C(/C=C\c1ccccc1)Nc1nccs1`, the EC50 is 1.07 µM.

Regarding `COc1ccc(-c2cc(=O)c3c(O)c(OC)c(O)cc3o2)cc1`, the concentration for a half-maximal effect (EC50) was 2.29 µM.

Regarding `CC(C)CC(=O)N/C(N)=N/c1nc2ccccc2s1`, the EC50 is 0.762 µM.

As to `Nc1cccc(-c2nc3ccccc3s2)c1`, the concentration for a half-maximal effect (EC50) is 1.41 µM.

As for `Cc1ccc(/C=C(\C#N)c2nc3ccccc3[nH]2)s1`, the EC50 was 0.637 µM.

For `CSc1ccc(/C=N/Nc2ccc(Cl)c(C(=O)O)c2)cc1`, the EC50 was 5.91 µM.

`Cc1ccc(C)c(NC(=O)c2ccc3ccccc3n2)c1`: the EC50 was 1.89 µM.

As for `COC(=O)Cc1ccc2sc(-c3ccccc3)nc2c1`, the EC50 was 0.702 µM.

Take `Cc1ccc(NC(=O)c2ccccn2)c(Br)c1`: the EC50 was 18.9 µM.

In the case of `CC(=O)Nc1nc2ccc(-c3nc4ccccc4o3)cc2s1`, the EC50 was 1.46 µM.

Consider `CCCCNc1ncnc2c1cnn2-c1ccccc1`, for which the half-maximal effective concentration (EC50) was 6.07 µM.

`Cc1nn2cc(-c3ccccc3)nc2s1`: the concentration giving a half-maximal response (EC50) was 2.03 µM.

Regarding `O=C(Nc1ccc2c(c1)CCC2)c1ccc(F)cc1`, the EC50 is 0.217 µM.

As to `COc1ccc2nc(Nc3ccccc3)sc2c1`, the EC50 was 11.1 µM.

Take `Cc1ccc(C(=O)Nc2nnc(SCC(=O)N3CCCc4ccccc43)s2)cc1`: the concentration for a half-maximal effect (EC50) is 1.66 µM.

Take `O=C(/C=C\Nc1ccc(Br)cc1)c1cccnc1`: the EC50 is 1.15 µM.

As for `CN(C)C(=S)Nc1nc2ccccc2s1`, the EC50 was 15.1 µM.

For `Nc1c(C(=O)Nc2ccc(Cl)cc2)oc2ccccc12`, the concentration giving a half-maximal response (EC50) is 11 µM.

As for `Cc1cc(C)n2cc(COc3ccc4ccccc4c3)nc2n1`, the concentration giving a half-maximal response (EC50) is 1.83 µM.

For `CC(C)c1ccc(/C=C/c2ccc(=O)n(C)n2)cc1`, the EC50 is 8.7 µM.

As to `CCOC(=O)c1cnc2c(-c3ccccc3)cnn2c1C`, the EC50 is 7.52 µM.

Regarding `N#C/C(=N\Nc1cccc(F)c1)C(=N)N1CCCCCC1`, the concentration for a half-maximal effect (EC50) is 1.64 µM.

As to `CN(C)c1ccc(NC(=O)Nc2cccc(Cl)c2)cc1`, the 50% effective concentration (EC50) was 3.42 µM.

Take `O=C(Nc1ccc2c(c1)OCCO2)c1ccc(Br)s1`: the EC50 was 0.609 µM.

`COc1ccc(-c2cn3cc(C)ccc3n2)cc1OC`: the EC50 was 3.37 µM.

As to `CCn1c(/C=C/c2ccccc2)nc2ccccc21`, the EC50 is 1.57 µM.

As to `Cc1nn(-c2nc3ccccc3s2)c(N)c1-c1ccccc1`, the EC50 was 9.75 µM.

In the case of `COc1ccc(-c2nc(-c3ccc(Br)o3)no2)cc1`, the concentration giving a half-maximal response (EC50) was 2.01 µM.

Take `COc1ccccc1/C=C/C(=O)Nc1ccc2c(c1)CCC2`: the EC50 was 5.64 µM.

`Clc1ccc(-c2nnc(-c3ccccc3Cl)o2)cc1`: the 50% effective concentration (EC50) is 2.35 µM.

`Cc1ccccc1-c1cc(-c2ccccc2O)n[nH]1`: the EC50 was 18 µM.

Regarding `NC(=O)c1ccsc1NC(=O)c1ccc2c(c1)CCCC2`, the EC50 is 0.455 µM.

Take `c1ccc2oc(-c3csc(NCC4CCCO4)n3)cc2c1` (configuration not stated): the 50% effective concentration (EC50) was 2.54 µM.

Take `O=C(c1cnn(-c2ccccc2)c1)c1ccccc1O`: the 50% effective concentration (EC50) is 1.71 µM.

Turning to `O=C(Nc1nc(-c2nc3ccccc3s2)cs1)C1CC1`, the concentration giving a half-maximal response (EC50) is 15.6 µM.

As for `COc1ccc(C(=O)Nc2ccc3c(c2)OCCO3)cc1`, the EC50 was 1.35 µM.

Turning to `O=C(Nc1ccc(Cl)cc1)c1ccc2c(c1)OCO2`, the 50% effective concentration (EC50) is 2.75 µM.

`N/C(=N\N=C\c1ccc2c(c1)OCO2)c1nonc1N`: the EC50 was 0.277 µM.

On to `COc1ccc(-c2cn3ccc4ccccc4c3n2)cc1`, for which the EC50 was 0.716 µM.

Take `Oc1ccccc1/C=N/Nc1cccc2cccnc12`: the EC50 is 3.58 µM.

Take `c1ccc2sc(NN=C3CCCC3)nc2c1`: the concentration for a half-maximal effect (EC50) is 5.21 µM.

Take `O=C(NCCSc1ccccn1)c1ccc(Cl)cc1`: the EC50 was 2.7 µM.

As for `Nc1nn(-c2ccccc2)c(N)c1N=Nc1ccccc1F`, the EC50 is 1.01 µM.

As for `O=C(Nc1ccccc1)Nc1nc2ccccc2s1`, the EC50 was 27.2 µM.

For the compound `Oc1ccc(-c2nnc(-c3ccc(O)cc3)nn2)cc1`, the EC50 was 5.89 µM.

As to `CC(/C=N/NC(=O)c1ccco1)=C\c1ccccc1`, the EC50 was 4.66 µM.

Consider `c1cn2cc(-c3ccc4c(c3)OCO4)nc2s1`, for which the EC50 is 1.86 µM.

As for `Clc1cc(Cl)c(OCc2nc(-c3ccccn3)no2)cc1Cl`, the half-maximal effective concentration (EC50) was 1.85 µM.

Take `Cc1cnc(NC(=O)Nc2ccc(Cl)cc2)s1`: the concentration for a half-maximal effect (EC50) was 24 µM.

Turning to `Fc1ccccc1CSc1nc2ccccc2[nH]1`, the EC50 was 3.19 µM.

As for `Cc1ccc2nc(-c3sc4nc(C)ccc4c3N)[nH]c2c1`, the EC50 was 0.765 µM.

For `CCn1cnc2cc(NCc3nc4ccccc4n3C)ccc21`, the concentration giving a half-maximal response (EC50) is 1.42 µM.

Turning to `O=c1c2ccccc2cnn1-c1ccc(Br)cc1`, the concentration giving a half-maximal response (EC50) is 10.2 µM.

Turning to `O=C1c2ccccc2NC(c2cnc3ccccc3n2)N1O` (configuration not stated), the EC50 was 0.903 µM.

For `CC(=O)Nc1ccc2oc(-c3ccccc3Br)nc2c1`, the EC50 is 1.06 µM.

Regarding `CN=c1scc(-c2ccccc2F)n1/N=C(\C)c1cccnc1`, the EC50 was 24.4 µM.

For the compound `Cc1ccsc1C(=O)OCc1csc(-c2ccccc2)n1`, the EC50 is 1.54 µM.

Regarding `O=C(/C=C/Nc1ccccc1C(F)(F)F)c1ccco1`, the 50% effective concentration (EC50) is 1.47 µM.

In the case of `Cc1[nH]n(-c2cccc(Cl)c2)c(=O)c1C=NCc1ccco1`, the concentration for a half-maximal effect (EC50) is 4.94 µM.

On to `CC1CCN(c2nc3ccc(C(=O)O)cc3s2)CC1`, for which the EC50 is 0.389 µM.

With `COc1cc(OC)cc(-c2nc3cc(C)ccc3o2)c1`, the 50% effective concentration (EC50) was 29.3 µM.

As to `COC(=O)c1ccc(-c2nc3ccccc3[nH]2)cc1`, the concentration giving a half-maximal response (EC50) was 0.946 µM.

Turning to `Cc1ccc(/C=N/Nc2ccc(Cl)c(C(=O)O)c2)s1`, the EC50 is 12.8 µM.

In the case of `C/C(=N\Nc1cccc2cccnc12)c1ccccc1O`, the EC50 was 1.01 µM.

With `COc1cccc(-c2cc(C(=O)N3CCCCCC3)no2)c1`, the EC50 is 1.99 µM.

With `Cc1cccnc1Nc1nc(-c2ccccn2)cs1`, the 50% effective concentration (EC50) is 0.16 µM.

In the case of `Cc1c(C(=O)Nc2nc3ccccc3[nH]2)oc2ccccc12`, the concentration for a half-maximal effect (EC50) was 1.38 µM.

Consider `COc1ccc(NC(=O)c2csc3c2CCCC3)cc1`, for which the EC50 was 16.7 µM.

Turning to `COc1ccc(-c2cn3cc(C)ccc3n2)cc1Br`, the EC50 is 0.327 µM.

As for `N/C(=N\OC(=O)c1cccc(Br)c1)c1ccccc1`, the 50% effective concentration (EC50) is 23.2 µM.

Consider `O=C(O)c1ccc2nc(-c3ccccc3)sc2c1`, for which the EC50 was 1.84 µM.

Consider `Cc1cc(NC(=O)c2ccccc2)sc1C`, for which the concentration for a half-maximal effect (EC50) was 17.3 µM.

With `CC(C)c1ccc(NC(=O)NC2CCCCC2)cc1`, the EC50 was 8.15 µM.

With `Nc1ccc(/C=C/C(=O)c2cccs2)cc1`, the concentration giving a half-maximal response (EC50) is 8.72 µM.
